# Tests used:
# [1] = system: L6; test: Cytotoxicity against rat L6 cells; type: cell-based
# [2] = system: BALB/3T3; test: Cytotoxicity against mouse BALB/3T3 cells after 72 hrs by SRB assay; details: BALB/3T3, 72 h
# [3] = system: A549; test: Cytotoxicity against human A549 cells after 72 hrs by SRB assay; details: A549, 72 h
# [4] = system: BALB/3T3; test: Ratio of IC50 for mouse BALB/3T3 cells to IC50 for human A549 cells
# [5] = system: HCT-116; test: Cytotoxicity against human HCT116 cells after 72 hrs by SRB assay; details: HCT-116, 72 h
# [6] = system: MV4-11; test: Cytotoxicity against human MV4-11 cells after 72 hrs by MTT assay; details: MV4-11, 72 h
# [7] = system: A549; test: Ratio of IC50 for human A549 cells to IC50 for human HCT116 cells; type: functional
# [8] = system: BALB/3T3; test: Ratio of IC50 for mouse BALB/3T3 cells to IC50 for human HCT116 cells
smiles,measurement,setting,value
COc1ccc2oc3nc4ccccc4c-3c(NCCCNC(=O)Nc3ccccc3)c2c1,IC50,[1],169 µM
COc1ccc2c(c1)c(NCCCNC(=O)Nc1ccccc1)c1c3ccccc3nc-1n2C,IC50,[1],2.7 µM
NCCCNc1c2c3ccccc3nc-2oc2ccccc12,IC50,[2],13.4 µM
same,IC50,[3],4.26 µM
same,Ratio IC50,[4],2
same,IC50,[5],5.7 µM
same,IC50,[6],1.02 µM
NCCCCNc1c2c3ccccc3nc-2oc2ccccc12,IC50,[2],12.1 µM
same,IC50,[3],3.9 µM
same,IC50,[5],7.2 µM
same,IC50,[6],0.76 µM
OCCCNc1c2c3ccccc3nc-2oc2ccccc12,IC50,[6],7.66 µM
CCN(CC)CCCC(C)Nc1c2c3ccccc3nc-2oc2ccccc12 (configuration not stated),IC50,[6],6.02 µM
c1ccc2c3c(N4CCOCC4)c4ccccc4oc-3nc2c1,IC50,[6],9.2 µM
NCCCNc1c2c3ccccc3nc-2oc2ccc(Cl)cc12,IC50,[2],10.1 µM
same,IC50,[3],5.59 µM
same,Ratio IC50,[4],2
same,IC50,[5],3.28 µM
same,IC50,[6],0.86 µM
NCCCCNc1c2c3ccccc3nc-2oc2ccc(Cl)cc12,IC50,[2],11 µM
same,IC50,[3],5.56 µM
same,Ratio IC50,[7],3
same,Ratio IC50,[4],2
same,IC50,[5],2.03 µM
same,IC50,[6],0.76 µM
OCCCNc1c2c3ccccc3nc-2oc2ccc(Cl)cc12,IC50,[6],> 30.6 µM
CCN(CC)CCCC(C)Nc1c2c3ccccc3nc-2oc2ccc(Cl)cc12 (configuration not stated),IC50,[6],7 µM
Clc1ccc2oc3nc4ccccc4c-3c(N3CCOCC3)c2c1,IC50,[6],> 29.5 µM
Clc1ccc2oc3nc4ccccc4c-3c(NCCc3c[nH]c4ccccc34)c2c1,IC50,[6],7.57 µM
C=CCNc1c2c3ccccc3nc-2oc2ccc(Cl)cc12,IC50,[6],> 32.4 µM
CN1CCCN(c2c3c4ccccc4nc-3oc3ccc(Cl)cc23)CC1,IC50,[2],16.8 µM
same,IC50,[3],10.8 µM
same,IC50,[5],9.68 µM
same,IC50,[6],0.63 µM
NCCCNc1c2c3ccccc3nc-2oc2ccc(Br)cc12,IC50,[2],8.94 µM
same,IC50,[3],6.19 µM
same,IC50,[5],4.19 µM
same,IC50,[6],0.97 µM
NCCCCNc1c2c3ccccc3nc-2oc2ccc(Br)cc12,IC50,[2],9.55 µM
same,IC50,[3],7.36 µM
same,IC50,[5],6.74 µM
same,IC50,[6],0.72 µM
OCCCNc1c2c3ccccc3nc-2oc2ccc(Br)cc12,IC50,[6],> 26.9 µM
CCN(CC)CCCC(C)Nc1c2c3ccccc3nc-2oc2ccc(Br)cc12 (configuration not stated),IC50,[6],4.93 µM
Brc1ccc2oc3nc4ccccc4c-3c(N3CCOCC3)c2c1,IC50,[6],25.3 µM
COc1ccc2oc3nc4ccccc4c-3c(NCCCN)c2c1,IC50,[2],6.87 µM
same,IC50,[3],9.29 µM
same,Ratio IC50,[7],5
same,Ratio IC50,[8],5
same,IC50,[5],1.93 µM
same,IC50,[6],0.12 µM
COc1ccc2oc3nc4ccccc4c-3c(NCCCO)c2c1,IC50,[6],7.26 µM
CCN(CC)CCCC(C)Nc1c2c3ccccc3nc-2oc2ccc(OC)cc12 (configuration not stated),IC50,[6],3.45 µM
COc1ccc2oc3nc4ccccc4c-3c(N3CCOCC3)c2c1,IC50,[2],8.73 µM
same,IC50,[3],10.6 µM
same,Ratio IC50,[7],5
same,Ratio IC50,[8],5
same,IC50,[5],1.7 µM
same,IC50,[6],0.38 µM
COc1ccc2oc3nc4ccccc4c-3c(NCCc3c[nH]c4ccccc34)c2c1,IC50,[6],3.04 µM
COc1ccc2oc3nc4ccccc4c-3c(Nc3ccccc3)c2c1,IC50,[6],4.35 µM
CS(=O)(=O)NCCCNc1c2c3ccccc3nc-2oc2ccccc12,IC50,[6],7.74 µM
O=S(=O)(NCCCNc1c2c3ccccc3nc-2oc2ccccc12)c1ccccc1,IC50,[6],> 23.2 µM
O=S(=O)(NCCCNc1c2c3ccccc3nc-2oc2ccccc12)c1ccc2ccccc2c1,IC50,[6],2.41 µM
CS(=O)(=O)NCCCNc1c2c3ccccc3nc-2oc2ccc(Br)cc12,IC50,[6],6.22 µM
O=S(=O)(NCCCNc1c2c3ccccc3nc-2oc2ccc(Br)cc12)c1ccccc1,IC50,[6],> 19.6 µM
O=S(=O)(NCCCNc1c2c3ccccc3nc-2oc2ccc(Br)cc12)c1ccc2ccccc2c1,IC50,[6],5.75 µM

# Reference: ChEMBL document CHEMBL2151016, “Synthesis and in vitro antiproliferative activity of new 11-aminoalkylamino-substituted chromeno[2,3-b]indoles” (Eur J Med Chem, 2012)
